Patent US20230257715A1, “COMPOSITIONS AND METHODS FOR REGULATING ENTEROENDOCRINE CELL DIFFERENTIATION AND USES THEREOF” (The Children's Medical Center Corporation, priority 2020, published 2023)

B1: betacellulin (protein, UniProt P35070 32-111, looked up)
Betacellulin: DGNSTRSPETNGLLCGDPEENCAATTTQSKRKGHFSRCPKQYKHYCIKGRCRFVVAEQTPSCVCDEGYIGARCERVDLFY
modifications: Betacellulin
notes: a ligand of both EGFR and the ErbB4 receptor

Experiments:
[1] = system: human duodenal enteroids; assay: qPCR analysis of enteroendocrine and lineage markers in enteroids; type: cell-based; details: for EE cell marker expression on inclusion in DM: compared with GM and DM without betacellulin or PF, qPCR
Text: For differentiation, enteroids were passaged and grown in GM for two days, to allow for ISC expansion, after which the organoids were transitioned to tissue-specific differentiation media (DM) with additional small molecules added as described (TABLE 1A and TABLE 1B). Media was changed every two days, with Tubastatin A being removed after the second day of differentiation. Enteroids and rectoids were taken for analysis after 14 days.
Total RNA was purified from individual wells using TRI®Reagent (Sigma) and the Direct-zol™ RNA kit (Zymo Research), following the manufacturer's protocol. RNA concentration was determined using a NanoDrop™ 1000 spectrophotometer (Life Technologies). RNA was treated with DNAse (Promega) and reverse transcribed using the High-Capacity cDNA Reverse Transcription Kit (Life Technologies). Gene expression analysis was then performed by Real Time quantitative PCR (qPCR) using a QuantStudio 6 Flex thermocycler (Life Technologies). Taqman primers from Life Technologies (TABLE 3) were used. 18S transcripts were used as the internal control and data were expressed using the 2^−ddCt method with Ct limit of 40. Fold change, unless otherwise stated, was compared to total RNA derived from adult whole mucosal tissue biopsies.

[2] = literature (Sathyapalan et al. 2010); cited from earlier work
[3] = system: GATA4-NKX2-5; details: in vitro, literature (Valimaki et al. 2017); cited from earlier work

Molecule | EE lineage marker mRNA expression when added to DM (qPCR) ([1]; compared to enteroids grown in G2D12, FIG. 2.1A) | human serum GIP levels [2] | GATA4-NKX2-5 transcriptional activity [3] | EE cell marker expression on inclusion in DM [1]
Cc1c(C(=O)NN2CCCCC2)nn(-c2ccc(Cl)cc2Cl)c1-c1ccc(Cl)cc1 [Rim, rimonabant] | induced expression of multiple EE lineage markers (CHGA, NEUROD1, NEUROG3, SST, and GIP) when added to DM, with Rim having a much larger effect | increase human serum GIP levels | increase the activity of GATA4-NKX2-5 transcriptional activity in vitro | –
Nc1ccc(-c2cnc(N)c(-c3ccc(Cl)cc3)c2)cn1 [PF, PF06260933] | – | – | – | increased expression of EE cell markers
B1 | – | – | – | increased expression of EE cell markers
